pIC50: −log10 of the molar value.
Test system: MOLM-13 cells
Test: MOLM-13 Cell Proliferation Assay (indicator of DHODH inhibition)
Format: cell-based
Conditions: Homo sapiens, 72 Hours of culture, CellTiter-Glo, no uridine
In short: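 Proliferation readout via CellTiter-Glo luminescence after 72 h compound treatment (37 °C, 5% CO2, 0.5% DMSO) of MOLM-13 cells seeded at 10^4 per well in RPMI 1640/10% FBS, used as a DHODH-inhibition indicator since these cells rely on de novo pyrimidine synthesis.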

## CN(C)c1ccc(C2c3[nH]c4cc(F)c(Cl)cc4c3CCN2c2nccc(C(F)(F)F)n2)cc1 (stereo not drawn) [Compound 170, 4-{6-chloro-7-fluoro-2-[4-(trifluoromethyl)pyrimidin-2-yl]-2,3,4,9-tetrahydro-1H-pyrido[3,4-b]indol-1-yl}-N,N-dimethylaniline]
  pIC50: 7.97

## Cc1nc(N2CCc3c([nH]c4cc(F)c(Cl)cc34)C2c2cccc(F)c2F)nc(C)c1C (stereo not drawn) [Compound 171, 6-chloro-1-(2,3-difluorophenyl)-7-fluoro-2-(4,5,6-trimethylpyrimidin-2-yl)-2,3,4,9-tetrahydro-1H-pyrido[3,4-b]indole]
  pIC50: 8.30

## Fc1cc2[nH]c3c(c2cc1Cl)CCN(c1nccc(C(F)(F)F)n1)C3c1ccc(Br)c(F)c1F (stereo not drawn) [Compound 172, 1-(4-bromo-2,3-difluorophenyl)-6-chloro-7-fluoro-2-[4-(trifluoromethyl)pyrimidin-2-yl]-2,3,4,9-tetrahydro-1H-pyrido[3,4-b]indole]
  pIC50: 8.82

## CN(C)c1ccc(C2c3[nH]c4cc(F)c(Cl)cc4c3CCN2c2nccc(C(F)(F)F)n2)c(F)c1F (stereo not drawn) [Compound 173, 4-{6-chloro-7-fluoro-2-[4-(trifluoromethyl)pyrimidin-2-yl]-2,3,4,9-tetrahydro-1H-pyrido[3,4-b]indol-1-yl}-2,3-difluoro-N,N-dimethylaniline]
  pIC50: 8.07

## Cc1ccc(C2c3[nH]c4ccc(C)c(F)c4c3CCN2c2nccc(C(F)(F)F)n2)cc1 (stereo not drawn) [Compound 174, 5-fluoro-6-methyl-1-(4-methylphenyl)-2-[4-(trifluoromethyl)pyrimidin-2-yl]-2,3,4,9-tetrahydro-1H-pyrido[3,4-b]indole]
  pIC50: 8.11

## Cc1ccc(C2c3[nH]c4cc(F)c(Cl)cc4c3CCN2c2ncc(F)c(C#N)n2)cc1 (stereo not drawn) [Compound 175, 2-[6-chloro-7-fluoro-1-(4-methylphenyl)-1,3,4,9-tetrahydro-2H-pyrido[3,4-b]indol-2-yl]-5-fluoropyrimidine-4-carbonitrile]
  pIC50: 8.33

## Cc1ccc([C@@H]2c3[nH]c4ccc(Cl)cc4c3CCN2c2nccc(C#N)n2)c(F)c1F [Compound 176, 2-[(1R)-6-chloro-1-(2,3-difluoro-4-methylphenyl)-1,3,4,9-tetrahydro-2H-pyrido[3,4-b]indol-2-yl]pyrimidine-4-carbonitrile]
  pIC50: 7.24

## CN(C)c1ccc(C2c3[nH]c4ccc(Cl)c(F)c4c3CCN2c2nccc(C(F)(F)F)n2)cn1 (stereo not drawn) [Compound 177, 5-{6-chloro-5-fluoro-2-[4-(trifluoromethyl)pyrimidin-2-yl]-2,3,4,9-tetrahydro-1H-pyrido[3,4-b]indol-1-yl}-N,N-dimethylpyridin-2-amine]
  pIC50: 8.41

## CN(C)c1ncc(C2c3[nH]c4ccc(Cl)c(F)c4c3CCN2c2nccc(C(F)(F)F)n2)cn1 (stereo not drawn) [Compound 178, 5-{6-chloro-5-fluoro-2-[4-(trifluoromethyl)pyrimidin-2-yl]-2,3,4,9-tetrahydro-1H-pyrido[3,4-b]indol-1-yl}-N,N-dimethylpyrimidin-2-amine]
  pIC50: 8.47

## Cc1ccc([C@@H]2c3[nH]c4ccc(Cl)cc4c3CCN2c2ncc(F)cn2)c(F)c1F [Compound 179, (1R)-6-chloro-1-(2,3-difluoro-4-methylphenyl)-2-(5-fluoropyrimidin-2-yl)-2,3,4,9-tetrahydro-1H-pyrido[3,4-b]indole]
  pIC50: 7.63

## Cc1ccc([C@@H]2c3[nH]c4ccc(Cl)cc4c3CCN2c2nccc(C(F)(F)F)n2)c(F)c1F [Compound 180, (1R)-6-chloro-1-(2,3-difluoro-4-methylphenyl)-2-[4-(trifluoromethyl)pyrimidin-2-yl]-2,3,4,9-tetrahydro-1H-pyrido[3,4-b]indole]
  pIC50: 7.95

## Fc1c(Cl)ccc2[nH]c3c(c12)CCN(c1nccc(C(F)(F)F)n1)[C@@H]3c1ccc(Cl)cc1 [Compound 181, (1R)-6-chloro-1-(4-chlorophenyl)-5-fluoro-2-[4-(trifluoromethyl)pyrimidin-2-yl]-2,3,4,9-tetrahydro-1H-pyrido[3,4-b]indole]
  pIC50: 6.75

## Fc1c(Cl)ccc2[nH]c3c(c12)CCN(c1nccc(C(F)(F)F)n1)[C@H]3c1ccc(Cl)cc1 [Compound 182, (1S)-6-chloro-1-(4-chlorophenyl)-5-fluoro-2-[4-(trifluoromethyl)pyrimidin-2-yl]-2,3,4,9-tetrahydro-1H-pyrido[3,4-b]indole]
  pIC50: 8.89

## N#Cc1nc(N2CCc3c([nH]c4cc(F)c(Cl)cc34)C2c2cccc(F)c2F)ncc1F (stereo not drawn) [Compound 183, 2-[6-chloro-1-(2,3-difluorophenyl)-7-fluoro-1,3,4,9-tetrahydro-2H-pyrido[3,4-b]indol-2-yl]-5-fluoropyrimidine-4-carbonitrile]
  pIC50: 8.35

## Fc1ccc(C2c3[nH]c4cc(F)c(Cl)cc4c3CCN2c2nccc(C(F)(F)F)n2)c(F)n1 (stereo not drawn) [Compound 184, 6-chloro-1-(2,6-difluoropyridin-3-yl)-7-fluoro-2-[4-(trifluoromethyl)pyrimidin-2-yl]-2,3,4,9-tetrahydro-1H-pyrido[3,4-b]indole]
  pIC50: 8.10

## Cc1ccnc(N2CCc3c([nH]c4ccc(Cl)cc34)[C@H]2c2ccc(C)c(F)c2F)n1 [Compound 185, (1R)-6-chloro-1-(2,3-difluoro-4-methylphenyl)-2-(4-methylpyrimidin-2-yl)-2,3,4,9-tetrahydro-1H-pyrido[3,4-b]indole]
  pIC50: 7.79

## Fc1ccc(C2c3[nH]c4ccc(Cl)c(F)c4c3CCN2c2nccc(C(F)(F)F)n2)c(F)n1 (stereo not drawn) [Compound 186, 6-chloro-1-(2,6-difluoropyridin-3-yl)-5-fluoro-2-[4-(trifluoromethyl)pyrimidin-2-yl]-2,3,4,9-tetrahydro-1H-pyrido[3,4-b]indole]
  pIC50: 8.52

## Cc1ccc([C@@H]2c3[nH]c4ccc(Cl)cc4c3CCN2c2ncc(F)c(C)n2)c(F)c1F [Compound 187, (1R)-6-chloro-1-(2,3-difluoro-4-methylphenyl)-2-(5-fluoro-4-methylpyrimidin-2-yl)-2,3,4,9-tetrahydro-1H-pyrido[3,4-b]indole]
  pIC50: 7.69

## N#Cc1ccc(C2c3[nH]c4cc(F)c(Cl)cc4c3CCN2c2nc(C(F)(F)F)cc(C(F)(F)F)n2)cc1 (stereo not drawn) [Compound 188, 4-{2-[4,6-bis(trifluoromethyl)pyrimidin-2-yl]-6-chloro-7-fluoro-2,3,4,9-tetrahydro-1H-pyrido[3,4-b]indol-1-yl}benzonitrile]
  pIC50: 9.22

## Cc1ccc([C@H]2c3[nH]c4ccc(Cl)c(F)c4c3CCN2c2nc(C)c(F)c(C)n2)c(F)c1F [Compound 189, (1S)-6-chloro-1-(2,3-difluoro-4-methylphenyl)-5-fluoro-2-(5-fluoro-4,6-dimethylpyrimidin-2-yl)-2,3,4,9-tetrahydro-1H-pyrido[3,4-b]indole]
  pIC50: 9.40

## Cc1ccc([C@@H]2c3[nH]c4ccc(Cl)c(F)c4c3CCN2c2nc(C)c(F)c(C)n2)c(F)c1F [Compound 190, (1R)-6-chloro-1-(2,3-difluoro-4-methylphenyl)-5-fluoro-2-(5-fluoro-4,6-dimethylpyrimidin-2-yl)-2,3,4,9-tetrahydro-1H-pyrido[3,4-b]indole]
  pIC50: 6.38

## Fc1c(Cl)ccc2[nH]c3c(c12)CCN(c1nccc(C(F)(F)F)n1)C3c1cncnc1 (stereo not drawn) [Compound 191, 6-chloro-5-fluoro-1-(pyrimidin-5-yl)-2-[4-(trifluoromethyl)pyrimidin-2-yl]-2,3,4,9-tetrahydro-1H-pyrido[3,4-b]indole]
  pIC50: 7.68

## Cc1ccc(C2c3[nH]c4ccc(C)c(F)c4c3CCN2c2nccc(C(F)(F)F)n2)c(F)c1F (stereo not drawn) [Compound 192, 1-(2,3-difluoro-4-methylphenyl)-5-fluoro-6-methyl-2-[4-(trifluoromethyl)pyrimidin-2-yl]-2,3,4,9-tetrahydro-1H-pyrido[3,4-b]indole]
  pIC50: 8.70

## Fc1c(Cl)ccc2[nH]c3c(c12)CCN(c1nccc(C(F)(F)F)n1)C3c1cnc(-n2ccnc2)nc1 (stereo not drawn) [Compound 193, 6-chloro-5-fluoro-1-[2-(1H-imidazol-1-yl)pyrimidin-5-yl]-2-[4-(trifluoromethyl)pyrimidin-2-yl]-2,3,4,9-tetrahydro-1H-pyrido[3,4-b]indole]
  pIC50: 8.42

## CN(C)c1ccc(C2c3[nH]c4ccc(Cl)c(F)c4c3CCN2c2ncc(F)cn2)cn1 (stereo not drawn) [Compound 194, 5-[6-chloro-5-fluoro-2-(5-fluoropyrimidin-2-yl)-2,3,4,9-tetrahydro-1H-pyrido[3,4-b]indol-1-yl]-N,N-dimethylpyridin-2-amine]
  pIC50: 7.94

## Cc1ccc(C2c3[nH]c4ccc(Cl)c(F)c4c3CCN2c2ncc(Cl)cn2)c(F)c1F (stereo not drawn) [Compound 195, 6-chloro-2-(5-chloropyrimidin-2-yl)-1-(2,3-difluoro-4-methylphenyl)-5-fluoro-2,3,4,9-tetrahydro-1H-pyrido[3,4-b]indole]
  pIC50: 9.00

## Cc1ccnc(N2CCc3c([nH]c4ccc(Cl)c(F)c34)C2c2ccc(C)c(F)c2F)n1 (stereo not drawn) [Compound 196, 6-chloro-1-(2,3-difluoro-4-methylphenyl)-5-fluoro-2-(4-methylpyrimidin-2-yl)-2,3,4,9-tetrahydro-1H-pyrido[3,4-b]indole]
  pIC50: 8.74

## Cc1ccc(C2c3[nH]c4ccc(Cl)c(F)c4c3CCN2c2nccc(C#N)n2)c(F)c1F (stereo not drawn) [Compound 198, 2-[6-chloro-1-(2,3-difluoro-4-methylphenyl)-5-fluoro-1,3,4,9-tetrahydro-2H-pyrido[3,4-b]indol-2-yl]pyrimidine-4-carbonitrile]
  pIC50: 8.92

## CNc1ncc(C2c3[nH]c4ccc(Cl)c(F)c4c3CCN2c2nccc(C(F)(F)F)n2)cn1 (stereo not drawn) [Compound 199, 5-{6-chloro-5-fluoro-2-[4-(trifluoromethyl)pyrimidin-2-yl]-2,3,4,9-tetrahydro-1H-pyrido[3,4-b]indol-1-yl}-N-methylpyrimidin-2-amine]
  pIC50: 8.27

## Fc1c(Cl)ccc2[nH]c3c(c12)CCN(c1nccc(C(F)(F)F)n1)C3c1cnc(N2CCOCC2)nc1 (stereo not drawn) [Compound 200, 6-chloro-5-fluoro-1-[2-(morpholin-4-yl)pyrimidin-5-yl]-2-[4-(trifluoromethyl)pyrimidin-2-yl]-2,3,4,9-tetrahydro-1H-pyrido[3,4-b]indole]
  pIC50: 8.68
